Measurements taken from US10894032B2, “Microbial-relief composition” (Curazene, LLC, priority 2014, dated 2021).
Where two headings read alike, the source gives them in different places.

Columns and labels:
Enterococcus = assay: Example 6 infected decubitus ulcer of a patient; type: in vivo, human; conditions: five days of antibiotic before the composition
Description: Both swabs were sent to the lab and a count of colony-forming units (CFUs) was ordered.

mycobacteria marinum = assay: Example 7 finger infection of a patient; type: in vivo, human; conditions: eleven days of antibiotics before the composition
Procedure: Action against Mycobacteria: A person with four-month long history of an infection on the posterior aspect of their right ring finger was treated. […] After failing two full courses of oral antibiotics, over the previous four months, the patient was given a third round of antibiotics, this time Clarythromycin, after their finger's condition had worsened.

[1] = system: ATCC 29213 (MSSA) and ATCC 43330 (MRSA)
Procedure: Testing was conducted at a pathology laboratory certified for microbiology testing by a physician and a microbiologist. A double blind, randomized controlled experiment was conducted to evaluate the SBDS surfactant against bacteria in Petri dishes.
(§1) Bacterial strain: Two well characterized strains of methicillin-sensitive Staphylococcus aureus (MSSA) and methicillin-resistant Staphylococcus aureus (MRSA) were used. Specifically, experiments used ATCC 29213 (MSSA) and ATCC 43330 (MRSA), both beta-lactamase positive strains, which represent greater than 90% of the respective strains in the American population.
(§2) Petri dish preparation: A sterile cotton swab (American Scientific Products, McGraw Park, Ill.) was dipped into the cultures and used to swab the entire surface of 150×15 mm Petri dishes containing 75 ml of standard Mueller-Hinton agar. Two Petri dishes were inoculated with ATCC 29213 (MSSA and two Petri dishes with ATCC 43330 (MRSA). One Petri dish of each group (MSSA and MRSA) was set aside as the controls. The other two Petri dishes (MSSA and MRSA) were divided up in quadrants, and each quadrant was labeled B, C, D or E.
To evaluate a wider range of surfactant concentrations, cleanser compositions were prepared as follows: A surfactant solution and a stock solution were mixed in various ratios to produce four skin cleanser solutions having four different surfactant concentrations of […], weight-to-weight. The amount of other ingredients in each of the four skin cleanser solutions was less than 1% concentration weight-to-weight.
Cleanser Testing: Four samples of the cleanser with the four different concentrations of the surfactant […] were placed into four separate, unmarked bottles. Each bottle was randomly labeled (B, C, D, or E), and the microbiologist conducting the study was unaware of any difference between the solutions.
(§3) Application: Holding each bottle vertically, the microbiologist added a single drop from each bottle (B, C, D, or E) to the corresponding quadrant of the labeled Petri dish. All four Petri dishes were placed in an incubator overnight at 37 degrees Celsius, and examined 20 hours later. Petri dishes were compared to the corresponding controls, and zones of inhibition were characterized by the largest point of diameter of the circle or oval.

MRSA strains = conditions: averaged over three repeated experiments
Description: as §1, §2, §3

MRSA = conditions: human, in vivo; cited from earlier work

O=C(O)c1cn(C2CC2)c2cc(N3CCNCC3)c(F)cc2c1=O [ciprofloxacin]
course of ulcer on antibiotic (Enterococcus): showed signs of worsening

CC[C@H]1OC(=O)[C@H](C)[C@@H](O[C@H]2C[C@@](C)(OC)[C@@H](O)[C@H](C)O2)[C@H](C)[C@@H](O[C@@H]2O[C@H](C)C[C@H](N(C)C)[C@H]2O)[C@](C)(OC)C[C@@H](C)C(=O)[C@H](C)[C@@H](O)[C@]1(C)O [Clarythromycin]
change in symptoms on antibiotic (mycobacteria marinum): no change in symptoms

Sodium Dodecylbenzene Sulfonate [surfactant]
difference from controls ([1]; surfactant concentration 0.5%, single drop, 20 hours, 37 degrees Celsius): no difference between the controls | inhibition of colony forming units (CFUs) ([1]; surfactant concentration 1%): approximately 50% | inhibition of colony forming units (CFUs) ([1]; surfactant concentration 2%): approximately 50% | diameter of circle of clear inhibition ([1]; surfactant concentration 8%): approximately 40 mm | Diameter of Zone of Inhibition (mm) (MRSA strains; Surfactant conc. 1.00% (vol. %)): No Change | Diameter of Zone of Inhibition (mm) (MRSA strains; Surfactant conc. 2.30% (vol. %)): 35.3 mm | Diameter of Zone of Inhibition (mm) (MRSA strains; Surfactant conc. 2.50% (vol. %)): 33.7 mm | Diameter of Zone of Inhibition (mm) (MRSA strains; Surfactant conc. 2.80% (vol. %)): 32.7 mm | Diameter of Zone of Inhibition (mm) (MRSA strains; Surfactant conc. 3.30% (vol. %)): 37.3 mm | Diameter of Zone of Inhibition (mm) (MRSA strains; Surfactant conc. 4.00% (vol. %)): 39.3 mm | Diameter of Zone of Inhibition (mm) (MRSA strains; Surfactant conc. 4.90% (vol. %)): 41.7 mm | Diameter of Zone of Inhibition (mm) (MRSA strains; Surfactant conc. 6.50% (vol. %)): 39 mm | Diameter of Zone of Inhibition (mm) (MRSA strains; Surfactant conc. 9.30% (vol. %)): 34 mm | Diameter of Zone of Inhibition (mm) (MRSA strains; Surfactant conc. 14.80% (vol. %)): 42.3 mm

CN[C@H](CC(C)C)C(=O)N[C@H]1C(=O)N[C@@H](CC(N)=O)C(=O)N[C@H]2C(=O)N[C@H]3C(=O)N[C@H](C(=O)N[C@H](C(=O)O)c4cc(O)cc(O)c4-c4cc3ccc4O)[C@H](O)c3ccc(c(Cl)c3)Oc3cc2cc(c3O[C@@H]2O[C@H](CO)[C@@H](O)[C@H](O)[C@H]2O[C@H]2C[C@](C)(N)[C@H](O)[C@H](C)O2)Oc2ccc(cc2Cl)[C@H]1O [Vancomycin]
share of MRSA patients for whom usually effective (MRSA): about 40%
